{"source": "patent US20030104079A1", "about": "“Skin tissue regeneration promoters comprising ginsenoside Rb1” (Japan Science and Technology Corporation, Japan, priority 2000, published 2003)", "key": {"[1]": {"system": "cultured nerve cells (neurons)", "details": "same SNP culture system, Japanese Patent Appln. No. Hei 10-365560; cited from earlier work"}, "[2]": {"experiment": "Observation of administered animals for side effects", "format": "in vivo, rats", "details": "present experiments, animals carefully observed", "text": "The amount of administration of ginsenoside Rb1, which is used as the preparation(s) for external or topical application to skin or the preparation(s) for external or topical application to mucosa, is far smaller than the amount of intravenous administration.\nActually, as indicated in PCT/JP00/04102 (Brain cell or nerve cell protecting agents comprising ginseng), as far as directing treatment or therapy of cerebral infarction by continuous intravenous administration in a dose of […] (weighing 300 g), dihydroginsenoside Rb1 is thought to be a quite safe pharmaceutical composition. The amount of administration of ginsenoside Rb1, which is used as the preparation(s) for external or topical application to skin or the preparation(s) for external or topical application to mucosa, is far smaller than the amount of intravenous administration."}, "[3]": {"details": "intraperitoneally administered; Kaku et al. 1975; cited from earlier work"}, "[4]": {"system": "permanent occlusion of the cortical branch of the middle cerebral artery", "details": "infused into the cerebroventricles of cerebral infarcted rats; cited from earlier work"}, "open wound of rat skin": {"system": "open wound of rat skin", "experiment": "Open wound healing by external or topical application to skin (propet ointment)", "format": "in vivo, rats", "text": "For that purpose, for example, by using Wistar male rats (body weight about 300 g), the punch biopsies with diameter 6 mm were made in the dorsal region of animals after shaving under inhalation anesthesia to prepare 3 regions of open wound. Among them, 0.1 g of ophthalmic white Vaseline (Propet) containing 0.01% by weight or 0.001% by weight of ginsenoside Rb1 was spread once for every day in two regions, and in the remaining open wound, the equal amount of ophthalmic white Vaseline (propet) was spread. Nine days after preparing open wound, the skin including wound regions was photographed. Further, we have examined the effects of external or topical cutaneous spread of 0.0001% by weight, 0.00001% by weight or 0.000001% by weight of ginsenoside Rb1 by the same procedure. Experimental animals were euthanized by anesthetia immediately before photographing, then wound regions were dissected out after photographing or after dissecting out wound regions, photographing was performed. Thereafter, the wound region tissues were stored in the fixative. FIG. 5 and FIG. 6 are photographs in place of drawings.\nThe punch biopsy with diameter 6 mm was performed in the dorsal 6 regions of each animal under inhalation anesthesia to prepare open wound. Thereafter, 0.1 g of propet (ophthalmic white vaseline) containing ginsenoside Rb1 at the concentrations of 0.0001% by weight (10^−4% by weight), 0.00001% by weight (10^−5% by weight), 0.000001% by weight (10^−6% by weight), 0.0000001% by weight (10^−7% by weight) and 0.00000001% by weight (10^−8% by weight), respectively, was applied externally, once a day, for 9 days on each open wound. The equal amount of propet alone was applied externally or topically in the control animals. Then, immediately after euthanasia by anesthetization, the skin containing the open wound was dissected out and photographed. The collected skin tissue was preserved in a fixative. FIG. 12 is a photograph in place of drawing.\nIn each case, there are three wounds on the left side and three wounds on the right side, totally 6 marks of open wounds.\nIn the experimental cases hereinbefore explained, an area of open wound (flair region) applied externally only with propet is set as a denominator and an area of open wound administered externally with ginsenoside Rb1 at concentrations from 10^−4% by weight to 10^−8% by weight is set as a numerator, and ratio thereof is calculated. In FIG. 13, n=3 and single asterisk (*) indicates significant difference, P<0.05, and two asterisks (**) indicate significant difference, P<0.01. Statistical test was performed according to Scheffe's post hoc test.\nDetails of dihydroginsenoside Rb1 is described in the specification of PCT/JP00/04102 (Brain cell or nerve cell protecting agents comprising ginseng). The punch biopsy with diameter 6 mm was performed at 5 places in the dorsal region of rats (n=4) under inhalation anesthesia to prepare open wound. Thereafter, 0.1 g of propet containing dihydroginsenoside Rb1 at concentrations of 0.0001% by weight (10^−4% by weight), 0.00001% by weight (10^−5% by weight), 0.000001% by weight (10^−6% by weight) and 0.0000001% by weight (10^−7% by weight), respectively, was applied topically or externally, once a day, for 9 days onto each open wound. The equal amount of propet alone was applied externally or topically in the control animals. Then, immediately after euthanasia by anesthetization, the skin containing the open wound was dissected out and photographed. The collected skin tissue was preserved in a fixative. FIG. 14 is a photograph in place of drawing. In FIG. 14, four cases are shown, and from the upper column, the first case, the second case, the third case and the fourth case are shown."}}, "note": "Entries after “also recorded” stand apart in the source; their conditions may differ.", "data": [{"compound": "CC(C)=CCC[C@](C)(O[C@@H]1O[C@H](CO[C@@H]2O[C@H](CO)[C@@H](O)[C@H](O)[C@H]2O)[C@@H](O)[C@H](O)[C@H]1O)[C@H]1CC[C@]2(C)[C@@H]1[C@H](O)C[C@@H]1[C@@]3(C)CC[C@H](O[C@@H]4O[C@H](CO)[C@@H](O)[C@H](O)[C@H]4O[C@@H]4O[C@H](CO)[C@@H](O)[C@H](O)[C@H]4O)C(C)(C)[C@@H]3CC[C@]12C", "note": "[ginsenoside Rb1]", "values": [{"measurement": "extracellular fluid concentration that inhibits apoptosis or apoptosis-like cell death of nerve cells", "setting": "[1]", "value": "≤ 1", "unit": "ng/mL"}, {"measurement": "side effect in administered animals", "setting": "[2]", "value": "no side effect or ill effect was noted"}, {"measurement": "LD50", "setting": "[3]", "value": 1110, "unit": "mg/kg"}, {"measurement": "cerebral infarction and place navigation disability", "setting": "[4]", "value": "cerebral infarction-reducting effect and place navigation disability-improving effect were observed"}, {"measurement": "open wound reduction (FIG. 13)", "setting": "open wound of rat skin; 0.0000001% by weight (10^−7% by weight) or less, i.e. 1 ng/g or less", "value": "reduced significantly the open wound"}, {"measurement": "ratio of open wound area to propet alone (FIG. 13)", "setting": "open wound of rat skin; 10^−4% to 10^−8% by weight, n=3, Scheffe's post hoc test", "value": "wound healing was significantly promoted"}, {"measurement": "area of the open wound relative to control", "setting": "open wound of rat skin; concentrations around 10^−8% by weight", "value": "about ¼"}, {"measurement": "growing hair in regions of wound healing (FIG. 12)", "setting": "open wound of rat skin; external administration of the low concentrations of ginsenoside Rb1", "value": "growing hair was obviously observed"}, {"measurement": "hair restoration or hair growth from regenerated open wound", "setting": "open wound of rat skin; extracutaneous administration of 0.000001% by weight", "value": "obvious hair restoration or hair growth"}, {"measurement": "area of open wound region relative to control", "setting": "open wound of rat skin; ginsenoside Rb1 at 0.0001%, 0.00001%, 0.000001%, 0.0000001% or 0.00000001% by weight", "value": "½-¼"}, {"measurement": "volume of the open wound relative to control", "setting": "open wound of rat skin; low concentrations, worked out from the area reduction", "value": "about ⅛"}, {"measurement": "effectiveness on open wound (FIG. 6)", "setting": "open wound of rat skin; propet containing 0.00001% or 0.000001% by weight, compared with 0.0001% by weight", "value": "superior effectiveness as compared with propet containing 0.0001% by weight"}, {"measurement": "open wound area vs propet alone (FIG. 5)", "setting": "open wound of rat skin; propet containing 0.001% by weight, 0.1 g once every day, day 9", "value": "slightly reduced"}, {"measurement": "open wound vs propet alone control (FIG. 5)", "setting": "open wound of rat skin; propet containing 0.01% by weight, 0.1 g once every day, day 9", "value": "trivial; also recorded: no difference"}, {"measurement": "wound healing vs propet alone (FIG. 12)", "setting": "open wound of rat skin; propet containing 10^−6% to 10^−8% by weight (10 ng/g to 100 pg/g), once a day for 9 days", "value": "wound healing was obviously promoted"}]}]}
